# Tests used:
# Hep3B cells = test: Clonogenic assay, Hep3B cells; format: cell-based, human
# Experimental: Clonogenic assay estimates single-cell reproductive viability by measuring the ability of a single cell to form a colony of 50 cells or more. Clonogenic assay in this study was performed as described previously (Franken et al., 2006). Briefly, cancer cells from an exponentially growing, sub-confluent culture were trypsinized and harvested. Approximately 200 cells were counted and plated in each well of a 6-well plate. Approximately 12 hours later, the cells were adherent and treatment conditions were introduced as described herein. After varying treatments, media was replaced and cells were allowed 14 days to form colonies. Subsequently, the media was aspirated and cells were washed with PBS once. Colonies were then fixed with glutaraldehyde (6.0% v/v) and stained with crystal violet (0.5% w/v) for 30 minutes on a leveled shaker at 50 RPM. The fixation and staining solution was then aspirated and the 6-well plates were air-dried after gentle rinsing with tap water. The number of colonies in each well was counted using a colony counting grid. […]
# Clonogenic assays were performed on Hep3B cells and SNU449 cells after one of two combinations of hyperthermia and gemcitabine compared with hyperthermia or gemcitabine alone. […] Next, clonogenic viability was evaluated at a gemcitabine concentration of 5 ng/ml and varied the duration of hyperthermia (30 minutes to 4 hours). […]
# Hep3B orthotopic tumors = test: Orthotopic Hep3B xenografts in CB17 SCID mice, tumor mass; format: in vivo, mouse
# Description: For in vivo studies, an implanted mouse model of human HCC was generated in CB17SCID mice (Taconic, Hudson, N.Y.). Female mice between 4 and 5 weeks in age were purchased and acclimatized in M.D. Anderson Animal facilities for up to one week. All animals were handled, housed and studied in accordance with the Institutional Animal Care and Use Committee. Tumors were generated after orthotopic implantation of approximately 1.6 million cells into the liver of each mouse (10 mice per group). Bioluminescence imaging indicated tumor development in the majority of mice three weeks after implantation. Euthanasia was performed by carbon dioxide inhalation followed by cervical spine dislocation.
# Cultured luciferase and GFP-expression human HCC cell lines (Hep3B and HepG2) were harvested from an exponentially growing culture and washed with PBS. The cells were re-suspended in 3 ml PBS and final centrifugation was performed at 1000 RPM for 5 minutes. Supernatant was discarded and the cell pellet was used for implantation. The concentration of cells achieved using this protocol was 160,000 cells per micro liter. The cells were kept on ice and animals were injected within 3-4 hours after final centrifugation.
# Before surgery, hair was removed from the ventral surface of the abdomen using clippers. Mice were anesthetized using 2.5% isoflurane. The surgical field was sterilized with 70% (v/v) ethanol in water. Mice were placed supine on a heating pad and the surgical site was sterilized using povidone iodine swab sticks. After confirming induction of anesthesia, an approximately 1-cm transverse incision was made in the skin of the upper abdomen slightly left of the midline. Deeper layers of muscle and peritoneum were incised and hemostasis was achieved using silver nitrate chemical cautery sticks. By applying gentle pressure on the lower abdomen and lower chest, the left lobe of the liver was eviscerated. […]
# Mice with confirmed tumors on bioluminescence were then randomized in groups of 10. […] Sample size was calculated using Stata SE 12.1 for Mac (College Station, Tex.). […]
smiles,measurement,setting,value
"Nc1ccn([C@@H]2O[C@H](CO)[C@@H](O)C2(F)F)c(=O)n1 [gemcitabine, 2′,2′-difluoro 2′-deoxycytidine]","clonogenic survival, gemcitabine combined with hyperthermia","Hep3B cells; Hep3B, irrespective of dose schedule",dose-dependent enhancement of gemcitabine toxicity
same,"clonogenic viability, varied duration of hyperthermia","Hep3B cells; gemcitabine 5 ng/ml, hyperthermia 30 minutes to 4 hours, cell line not named in the sentence (Hep3B and SNU449 in FIG. 17)",thermal dose-dependent enhancement in toxicity
same,Mean tumor mass [±SD],"Hep3B orthotopic tumors; RF then gemcitabine (RF 10 min, 600 W, immediately followed by gemcitabine)",180 ± 91 mg
same,Mean tumor mass [±SD],"Hep3B orthotopic tumors; gemcitabine alone, 70 mg/kg/dose twice a week for three weeks",661 ± 419 mg
same,Mean tumor mass [±SD],Hep3B orthotopic tumors; gemcitabine then RF (RF 24 hours later),291 ± 126 mg

# Source: patent US20170209579A1, “NON-INVASIVE RADIOFREQUENCY FIELD TREATMENT FOR CANCER THERAPY” (Baylor College of Medicine, priority 2014, published 2017)
